This note sets out measurements from patent publication US11453666B2, “Autotaxin inhibitory compounds” (Cancer Research Technology Limited, priority 2015, dated 2022).

SMILES strings stand for the structures. Like-named read-outs stand apart in the source and are kept apart here.

This test deals with human recombinant ATX (Homo sapiens, UniProt Q13822). The test is described as follows: Autotaxin (ATX) activity Quanta Red assay. In kind it is biochemical. In outline:
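Recombinant human ATX reaction stopped after 2 h with Quanta Red stop solution; fluorescence read at […]. Controls with DMSO, with and without ATX; IC50 in duplicate.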

The mark [1] stands for this setting: read-out: Activity (ATX activity, Quanta Red assay; IC50).
[2] abbreviates: human recombinant ATX 0.8 μg/mL, 2 hours at room temperature, IC50 determined in duplicate, read-out: Activity (ATX activity, Quanta Red assay; IC50).

`Cc1ccc2nc(CCC(=O)N[C@@H](C)c3ccc(F)cc3)n(Cc3ccc(F)cc3)c2n1` [Example 121, 3-[3-(4-fluoro-benzyl)-5-methyl-3H-imidazo[4,5-b]pyridin-2-yl]-N—[(S)-1-(4-fluoro-phenyl)-ethyl]-propionamide]: the IC50 under setting [1] amounted to 269 nM.

As to `CC[C@H]1CN(c2ccc([C@H](C)NC(=O)CCc3nc4cccnc4n3Cc3ccc(OC(F)(F)F)cc3)cc2)CCN1` [Example 172, N-{(S)-1-[4-((S)-3-Ethyl-piperazin-1-yl)-phenyl]-ethyl}-3-[3-(4-trifluoromethoxy-benzyl)-3H-imidazo[4,5-b]pyridin-2-yl]-propionamide], under setting [1], the IC50 amounted to 2 nM.

Consider `CN(C)c1ccc(CNC(=O)CCc2nc3cccnc3n2Cc2ccc(F)cc2)cc1` [Example 58, N-(4-Dimethylamino-benzyl)-3-[3-(4-fluoro-benzyl)-3H-imidazo[4,5-b]pyridin-2-yl]-propionamide], for which, under setting [1], the IC50 amounted to 61 nM.

Turning to `C[C@H](NC(=O)NCc1nc2cccnc2n1Cc1ccc(F)cc1)c1ccc(F)cc1` [Example 160, 1-[3-(4-Fluoro-benzyl)-3H-imidazo[4,5-b]pyridin-2-ylmethyl]-3-[(S)-1-(4-fluoro-phenyl)-ethyl]-urea], the IC50 under setting [2] was found to be 80 nM.

As to `CC(C)(C)OC(=O)N1CCC(CNC(=O)CCc2nc3cccnc3n2Cc2ccc(OC(F)(F)F)cc2)CC1` [Example 51, 4-({3-[3-(4-Trifluoromethoxy-benzyl)-3H-imidazo[4,5-b]pyridin-2-yl]-propionylamino}-methyl)-piperidine-1-carboxylic acid tert-butyl ester], the IC50 under setting [1] was 22 nM.

With `CCCCNC(=O)CCc1nc2cccnc2n1Cc1ccccc1` [Example 228, 3-(3-Benzyl-3H-imidazo[4,5-b]pyridin-2-yl)-N-butyl-propionamide], the IC50 (Table 2: additional compounds tested for ATX activity (Quanta Red Assay), read-out: Activity) turned out to be 8810 nM.

Take `O=C(CCc1nc2cccnc2n1Cc1ccc(OC(F)(F)F)cc1)NC(CO)c1ccc(C(F)(F)F)cc1` (stereo not drawn) [Example 23, N-[2-Hydroxy-1-(4-trifluoromethyl-phenyl)-ethyl]-3-[3-(4-trifluoromethoxy-benzyl)-3H-imidazo[4,5-b]pyridin-2-yl]-propionamide]: the IC50 under setting [1] worked out at 4 nM.

With `O=C(CCc1nc2cccnc2n1Cc1ccc(OC(F)(F)F)cc1)Nc1nccs1` [Example 69, N-Thiazol-2-yl-3-[3-(4-trifluoromethoxy-benzyl)-3H-imidazo[4,5-b]pyridin-2-yl]-propionamide], the IC50 under setting [1] came to 214 nM.

Regarding `COc1ccc(Cn2c(CCC(=O)NCc3ccccc3F)nc3cccnc32)cc1` [Example 114, N-(2-Fluoro-benzyl)-3-[3-(4-methoxy-benzyl)-3H-imidazo[4,5-b]pyridin-2-yl]-propionamide], under setting [1], the IC50 was 301 nM.

Regarding `CC(=O)N1CCC(CNC(=O)CCc2nc3cccnc3n2Cc2ccc(OC(F)(F)F)cc2)CC1` [Example 216, N-(1-Acetyl-piperidin-4-ylmethyl)-3-[3-(4-trifluoromethoxy-benzyl)-3H-imidazo[4,5-b]pyridin-2-yl]-propionamide], the IC50 under setting [1] was 495 nM.

Turning to `C[C@H](NC(=O)NCc1nc2cccnc2n1Cc1ccc(F)cc1)c1ccc(Cl)cc1` [Example 157, 1-[(S)-1-(4-Chloro-phenyl)-ethyl]-3-[3-(4-fluoro-benzyl)-3H-imidazo[4,5-b]pyridin-2-ylmethyl]-urea], the IC50 under setting [2] was 10 nM.

For the compound `COc1ccc(Cn2c(CCC(=O)NCc3ccc(F)c(F)c3)nc3cccnc32)cc1` [Example 107, N-(3,4-Difluoro-benzyl)-3-[3-(4-methoxy-benzyl)-3H-imidazo[4,5-b]pyridin-2-yl]-propionamide], under setting [1], the IC50 is 102 nM.

Turning to `C[C@@H](NC(=O)CCc1nc2cccnc2n1Cc1ccc(OC(F)(F)F)cc1)c1ccc(Cl)cc1` [Example 49, N-[(R)-1-(4-Chloro-phenyl)-ethyl]-3-[3-(4-trifluoromethoxy-benzyl)-3H-imidazo[4,5-b]pyridin-2-yl]-propionamide], under setting [1], the IC50 stood at 21 nM.

Consider `C[C@H](NC(=O)CCc1nc2cccnc2n1Cc1ccc(F)c(F)c1)c1ccccc1` [Example 86, 3-[3-(3,4-Difluoro-benzyl)-3H-imidazo[4,5-b]pyridin-2-yl]-N-((S)-1-phenyl-ethyl)-propionamide], for which, under setting [1], the IC50 is 5 nM.

Turning to `C[C@H](NC(=O)CCc1nc2cccnc2n1Cc1ccc(OCc2ccccc2)cc1)c1ccc(Cl)cc1` [Example 76, 3-[3-(4-Benzyloxy-benzyl)-3H-imidazo[4,5-b]pyridin-2-yl]-N-[(S)-1-(4-chloro-phenyl)-ethyl]-propionamide], under setting [1], the IC50 was 500 nM.

With `C[C@H](NC(=O)CCc1nc2cccnc2n1Cc1ccc(OC(F)(F)F)cc1)c1ccc(N2CCN(C)CC2)cc1` [Example 167, N—{(S)-1-[4-(4-methyl-piperazin-1-yl)-phenyl]-ethyl}-3-[3-(4-trifluoromethoxy-benzyl)-3H-imidazo[4,5-b]pyridin-2-yl]-propionamide], the IC50 under setting [1] worked out at 1 nM.

Take `O=C(CCc1nc2cccnc2n1Cc1ccc(F)c(F)c1)NC[C@H](O)c1ccccc1` [Example 67, 3-[3-(3,4-Difluoro-benzyl)-3H-imidazo[4,5-b]pyridin-2-yl]-N-((R)-2-hydroxy-2-phenyl-ethyl)-propionamide]: under setting [1], the IC50 was determined as 169 nM.

Take `O=C(CCc1nc2cccnc2n1Cc1ccc(F)c(F)c1)NCc1ccccn1` [Example 75, 3-[3-(3,4-Difluoro-benzyl)-3H-imidazo[4,5-b]pyridin-2-yl]-N-pyridin-2-ylmethyl-propionamide]: the IC50 under setting [1] turned out to be 424 nM.

With `O=C(CCc1nc2cccnc2n1Cc1ccc(OC(F)(F)F)cc1)Nc1ncco1` [Example 78, N-Oxazol-2-yl-3-[3-(4-trifluoromethoxy-benzyl)-3H-imidazo[4,5-b]pyridin-2-yl]-propionamide], the IC50 under setting [1] turned out to be 800 nM.

Consider `CC[C@H](NC(=O)CCc1nc2cccnc2n1Cc1ccc(OC)cc1)c1ccccc1` [Example 93, 3-[3-(4-Methoxy-benzyl)-3H-imidazo[4,5-b]pyridin-2-yl]-N-((S)-1-phenyl-propyl)-propionamide], for which the IC50 under setting [1] is 15 nM.

For the compound `O=C(CCc1nc2ccncc2n1Cc1ccc(OC(F)(F)F)cc1)N[C@@H](CO)c1ccccc1` [Example 123, N-((R)-2-Hydroxy-1-phenyl-ethyl)-3-[3-(4-trifluoromethoxy-benzyl)-3H-imidazo[4,5-c]pyridin-2-yl]-propionamide], under setting [1], the IC50 was 3 nM.

With `C[C@H](NC(=O)CCc1nc2cccnc2n1Cc1ccc(F)c(F)c1)c1ccc(CN2CCOCC2)cc1` [Example 206, 3-[3-(3,4-difluoro-benzyl)-3H-imidazo[4,5-b]pyridin-2-yl]-N—[(S)-1-(4-morpholin-4-ylmethyl-phenyl)-ethyl]-propionamide], under setting [1], the IC50 came to 3 nM.

With `COc1ccc(Cn2c(CCC(=O)N[C@@H](C)c3ccc(F)cc3)nc3cccnc32)cc1` [Example 96, N-[(S)-1-(4-Fluoro-phenyl)-ethyl]-3-[3-(4-methoxy-benzyl)-3H-imidazo[4,5-b]pyridin-2-yl]-propionamide], the IC50 under setting [1] was 22 nM.

On to `C[C@H](NC(=O)CCc1nc2ccncc2n1Cc1ccc(OC(F)(F)F)cc1)c1ccc(F)cc1` [Example 124, N-[(S)-1-(4-Fluoro-phenyl)-ethyl]-3-[3-(4-trifluoromethoxy-benzyl)-3H-imidazo[4,5-c]pyridin-2-yl]-propionamide], for which the IC50 under setting [2] was determined as 8 nM.

On to `CC(NC(=O)CCc1nc2cccnc2n1Cc1ccc(OC(F)(F)F)cc1)c1ccncc1` (stereo not drawn) [Example 34, N-(1-Pyridin-4-yl-ethyl)-3-[3-(4-trifluoromethoxy-benzyl)-3H-imidazo[4,5-b]pyridin-2-yl]-propionamide], for which the IC50 under setting [1] was 6 nM.

For `O=C(CCc1nc2cccnc2n1Cc1ccc(F)c(F)c1)N[C@@H]1c2ccccc2C[C@H]1O` [Example 59, 3-[3-(3,4-Difluoro-benzyl)-3H-imidazo[4,5-b]pyridin-2-yl]-N-((1R,2R)-2-hydroxy-indan-1-yl)-propionamide], the IC50 under setting [1] came out at 63 nM.

For the compound `COc1ccc(CNC(=O)CCc2nc3cccnc3n2Cc2cccc(C)c2)cc1` [Example 118, N-(4-Methoxy-benzyl)-3-[3-(3-methyl-benzyl)-3H-imidazo[4,5-b]pyridin-2-yl]-propionamide], the IC50 under setting [1] was found to be 726 nM.

For `C[C@H](NC(=O)CCc1nc2cccnc2n1Cc1ccc(F)c(F)c1)c1ccc(N2CCOCC2)cc1` [Example 45, 3-[3-(3,4-Difluoro-benzyl)-3H-imidazo[4,5-b]pyridin-2-yl]-N-[(S)-1-(4-morpholin-4-yl-phenyl)-ethyl]-propionamide], the IC50 under setting [1] was 17 nM.

For the compound `O=C(CCc1nc2cccnc2n1Cc1ccc(OC(F)(F)F)cc1)N[C@@H](CO)c1ccccc1` [Example 7, N-((R)-2-Hydroxy-1-phenyl-ethyl)-3-[3-(4-trifluoromethoxy-benzyl)-3H-imidazo[4,5-b]pyridin-2-yl]-propionamide], the IC50 under setting [1] came out at 1 nM.

As to `C[C@H](NC(=O)NCc1nc2cccnc2n1Cc1ccc(F)c(F)c1)c1ccc(Br)cc1` [Example 158, 1-[(S)-1-(4-Bromo-phenyl)-ethyl]-3-[3-(3,4-difluoro-benzyl)-3H-imidazo[4,5-b]pyridin-2-ylmethyl]-urea], under setting [1], the IC50 was found to be 17 nM.

For `C[C@H](NC(=O)CCc1nc2cccnc2n1Cc1ccc(OC(F)(F)F)cc1)c1ccc(N2CCCNCC2)cc1` [Example 170, N-[(S)-1-(4-[1,4]Diazepan-1-yl-phenyl)-ethyl]-3-[3-(4-trifluoromethoxy-benzyl)-3H-imidazo[4,5-b]pyridin-2-yl]-propionamide], the IC50 under setting [1] turned out to be 2 nM.

For the compound `O=C(CCc1nc2cccnc2n1Cc1ccc(OC(F)(F)F)cc1)NC(CO)c1ccc(F)cc1` (stereo not drawn) [Example 15, N-[1-(4-Fluoro-phenyl)-2-hydroxy-ethyl]-3-[3-(4-trifluoromethoxy-benzyl)-3H-imidazo[4,5-b]pyridin-2-yl]-propionamide], the IC50 under setting [1] is 2 nM.

Take `CN(C)c1ccc(CNC(=O)CCc2nc3cccnc3n2Cc2ccc(OC(F)(F)F)cc2)cc1` [Example 31, N-(4-Dimethylamino-benzyl)-3-[3-(4-trifluoromethoxy-benzyl)-3H-imidazo[4,5-b]pyridin-2-yl]-propionamide]: the IC50 under setting [1] stood at 6 nM.
